{"source": "ChEMBL document CHEMBL1201862", "about": "“PubChem BioAssay data set” (2004)", "key": {"Bcl-2-related protein A1": {"target": "T1, Bcl-2-related protein A1 (Mus musculus, UniProt Q07440)", "T1 sequence (Q07440 whole entry)": "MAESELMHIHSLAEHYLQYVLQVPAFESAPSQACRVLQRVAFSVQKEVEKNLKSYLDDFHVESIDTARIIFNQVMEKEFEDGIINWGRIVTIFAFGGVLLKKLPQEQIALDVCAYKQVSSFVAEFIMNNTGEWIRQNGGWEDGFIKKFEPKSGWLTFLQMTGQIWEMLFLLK", "type": "functional"}, "[1]": {"target": "T2, Ubiquitin-conjugating enzyme E2 N (Homo sapiens, UniProt P61088)", "T2 sequence (P61088 whole entry)": "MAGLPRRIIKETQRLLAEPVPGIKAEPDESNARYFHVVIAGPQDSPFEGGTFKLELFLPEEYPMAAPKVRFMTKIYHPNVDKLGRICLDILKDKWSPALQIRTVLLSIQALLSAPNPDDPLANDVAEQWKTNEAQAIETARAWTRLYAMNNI", "type": "functional"}, "HEK293": {"test_system": "HEK293", "assay": "HEK cell cytotoxicity by LDH release, dose response, cytotoxicity control for IDE activator project, fluorescence, HEK cells (AID 588440);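 further: cytotoxicity by LDH release measuring loss of membrane integrity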", "type": "functional, cell-based", "details": "Homo sapiens"}, "[2]": {"target": "T2, Ubiquitin-conjugating enzyme E2 N", "type": "functional", "remark": "listed apart in the source"}, "Protein RecA": {"target": "T3, Protein RecA (Mycobacterium tuberculosis, UniProt P9WHJ3)", "T3 sequence (P9WHJ3 whole entry)": "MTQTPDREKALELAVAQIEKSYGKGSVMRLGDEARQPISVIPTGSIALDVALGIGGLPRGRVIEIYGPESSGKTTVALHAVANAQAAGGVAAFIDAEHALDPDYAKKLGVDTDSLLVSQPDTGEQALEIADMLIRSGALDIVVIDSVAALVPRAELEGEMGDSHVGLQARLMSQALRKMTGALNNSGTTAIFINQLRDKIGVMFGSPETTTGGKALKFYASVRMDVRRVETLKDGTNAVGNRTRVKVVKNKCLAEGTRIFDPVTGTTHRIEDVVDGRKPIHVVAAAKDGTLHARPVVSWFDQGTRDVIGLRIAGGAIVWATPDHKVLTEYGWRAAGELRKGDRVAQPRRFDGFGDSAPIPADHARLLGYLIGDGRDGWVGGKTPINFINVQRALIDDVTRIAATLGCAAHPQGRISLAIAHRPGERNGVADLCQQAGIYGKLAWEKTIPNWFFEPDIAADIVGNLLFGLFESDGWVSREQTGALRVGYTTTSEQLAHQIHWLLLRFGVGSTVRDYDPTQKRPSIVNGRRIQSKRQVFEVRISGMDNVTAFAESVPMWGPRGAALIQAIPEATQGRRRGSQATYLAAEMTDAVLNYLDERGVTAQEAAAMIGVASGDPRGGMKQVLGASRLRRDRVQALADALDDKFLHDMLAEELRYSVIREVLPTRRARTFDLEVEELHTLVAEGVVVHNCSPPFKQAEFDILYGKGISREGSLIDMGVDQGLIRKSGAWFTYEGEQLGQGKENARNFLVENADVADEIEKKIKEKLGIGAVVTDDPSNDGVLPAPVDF", "assay": "Fluorescence Cell-Free Homogeneous Dose Retest to Identify Inhibitors of RecA-Intein Splicing Activity. [Related pubchem assays (depositor defined):AID2097, AID2223, AID489010, AID492950]", "type": "functional"}, "[3]": {"target": "T4, Alkaline phosphatase, tissue-nonspecific isozyme (Homo sapiens, UniProt P05186)", "T4 sequence (P05186 whole entry)": "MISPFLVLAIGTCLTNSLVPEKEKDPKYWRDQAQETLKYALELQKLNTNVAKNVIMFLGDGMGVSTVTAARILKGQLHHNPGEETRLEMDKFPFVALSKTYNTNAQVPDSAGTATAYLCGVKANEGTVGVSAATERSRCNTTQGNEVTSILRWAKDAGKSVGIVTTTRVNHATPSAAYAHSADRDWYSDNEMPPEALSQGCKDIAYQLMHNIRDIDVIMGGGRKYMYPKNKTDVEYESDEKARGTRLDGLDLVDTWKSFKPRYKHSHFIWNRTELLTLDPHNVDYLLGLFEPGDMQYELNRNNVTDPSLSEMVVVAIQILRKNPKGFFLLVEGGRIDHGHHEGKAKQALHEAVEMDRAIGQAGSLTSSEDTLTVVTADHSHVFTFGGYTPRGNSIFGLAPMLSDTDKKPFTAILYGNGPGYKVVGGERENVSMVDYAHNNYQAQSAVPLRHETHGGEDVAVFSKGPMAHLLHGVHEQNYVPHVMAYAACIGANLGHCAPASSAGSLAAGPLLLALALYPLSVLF", "assay": "TNAP enzyme activators, dose response, selectivity assay for human IAP activator project, biochemical, TNAP isozyme, human IAP uHTS hits (AID 488886);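 further: potency of compounds raising TNAP activity as a selectivity check on IAP activators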", "type": "functional"}, "Prothrombin": {"target": "Prothrombin (Bos taurus, UniProt P00735)", "assay": "thrombin inhibition, dose response, biochemical, fluorescence polarization, uHTS hits (AID 602369)", "type": "functional"}, "[4]": {"target": "Intestinal-type alkaline phosphatase (Homo sapiens, UniProt P09923)", "sequence (P09923 whole entry)": "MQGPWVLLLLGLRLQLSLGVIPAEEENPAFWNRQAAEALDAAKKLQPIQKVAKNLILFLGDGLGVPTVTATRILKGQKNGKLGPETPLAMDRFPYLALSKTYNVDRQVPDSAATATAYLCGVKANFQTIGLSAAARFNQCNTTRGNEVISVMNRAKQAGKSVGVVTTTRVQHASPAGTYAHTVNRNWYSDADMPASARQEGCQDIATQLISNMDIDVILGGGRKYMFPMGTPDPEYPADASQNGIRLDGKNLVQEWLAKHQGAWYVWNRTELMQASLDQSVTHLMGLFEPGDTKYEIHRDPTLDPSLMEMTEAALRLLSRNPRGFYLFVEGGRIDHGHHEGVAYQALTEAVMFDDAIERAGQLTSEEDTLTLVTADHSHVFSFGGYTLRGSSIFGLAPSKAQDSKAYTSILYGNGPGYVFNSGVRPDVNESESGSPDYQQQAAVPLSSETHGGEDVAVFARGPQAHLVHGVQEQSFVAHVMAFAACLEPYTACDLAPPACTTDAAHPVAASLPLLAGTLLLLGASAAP", "assay": "human intestinal alkaline phosphatase activators, dose response, biochemical, luminescence, uHTS hits (AID 463120)", "type": "functional"}, "[5]": {"target": "Cyclin-dependent kinase 5 (Homo sapiens, UniProt Q00535)", "sequence (Q00535 whole entry)": "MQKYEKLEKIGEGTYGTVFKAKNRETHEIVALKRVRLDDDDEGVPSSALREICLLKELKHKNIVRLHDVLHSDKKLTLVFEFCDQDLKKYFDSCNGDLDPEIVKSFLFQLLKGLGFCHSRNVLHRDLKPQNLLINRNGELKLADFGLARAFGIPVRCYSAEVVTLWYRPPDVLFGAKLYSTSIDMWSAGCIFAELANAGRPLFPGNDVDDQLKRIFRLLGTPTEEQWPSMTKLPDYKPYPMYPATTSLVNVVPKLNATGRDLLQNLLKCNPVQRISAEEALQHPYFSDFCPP", "type": "functional"}, "[6]": {"target": "Hepatocyte growth factor receptor (Homo sapiens, UniProt P08581)", "sequence (P08581 whole entry)": "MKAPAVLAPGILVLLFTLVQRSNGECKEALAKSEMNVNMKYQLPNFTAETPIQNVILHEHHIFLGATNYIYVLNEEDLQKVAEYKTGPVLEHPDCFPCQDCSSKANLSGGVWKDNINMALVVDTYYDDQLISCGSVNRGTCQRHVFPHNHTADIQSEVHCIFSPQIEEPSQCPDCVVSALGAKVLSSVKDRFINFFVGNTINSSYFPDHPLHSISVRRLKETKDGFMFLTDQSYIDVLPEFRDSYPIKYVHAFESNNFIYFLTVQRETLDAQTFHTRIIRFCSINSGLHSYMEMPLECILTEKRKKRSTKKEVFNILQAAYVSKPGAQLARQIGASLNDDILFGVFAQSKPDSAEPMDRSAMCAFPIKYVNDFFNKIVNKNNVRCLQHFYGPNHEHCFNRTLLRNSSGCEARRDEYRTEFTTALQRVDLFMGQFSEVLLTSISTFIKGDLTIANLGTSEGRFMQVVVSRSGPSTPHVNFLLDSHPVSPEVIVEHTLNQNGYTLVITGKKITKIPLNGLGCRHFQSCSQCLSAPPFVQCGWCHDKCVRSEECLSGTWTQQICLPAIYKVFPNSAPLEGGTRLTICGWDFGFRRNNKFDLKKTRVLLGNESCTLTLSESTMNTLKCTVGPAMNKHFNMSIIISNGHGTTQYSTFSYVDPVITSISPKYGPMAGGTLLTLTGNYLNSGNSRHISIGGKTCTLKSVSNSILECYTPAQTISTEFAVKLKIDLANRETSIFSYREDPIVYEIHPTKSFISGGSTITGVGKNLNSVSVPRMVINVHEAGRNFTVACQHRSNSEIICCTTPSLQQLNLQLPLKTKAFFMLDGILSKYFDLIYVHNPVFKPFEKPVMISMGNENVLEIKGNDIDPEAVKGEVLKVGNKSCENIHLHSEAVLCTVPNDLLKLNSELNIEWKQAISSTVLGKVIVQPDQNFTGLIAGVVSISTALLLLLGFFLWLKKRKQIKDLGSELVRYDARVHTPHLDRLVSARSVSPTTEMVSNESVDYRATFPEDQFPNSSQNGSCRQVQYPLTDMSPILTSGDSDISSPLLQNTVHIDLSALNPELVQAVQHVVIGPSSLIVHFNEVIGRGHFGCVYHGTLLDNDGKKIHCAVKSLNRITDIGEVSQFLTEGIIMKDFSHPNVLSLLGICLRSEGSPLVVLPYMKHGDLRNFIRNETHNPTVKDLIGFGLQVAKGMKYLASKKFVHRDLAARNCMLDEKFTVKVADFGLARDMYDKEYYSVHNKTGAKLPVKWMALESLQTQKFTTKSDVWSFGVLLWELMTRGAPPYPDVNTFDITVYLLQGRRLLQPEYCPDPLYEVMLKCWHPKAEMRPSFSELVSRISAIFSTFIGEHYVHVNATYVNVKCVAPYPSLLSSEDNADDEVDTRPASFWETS", "type": "functional"}, "LIM domain kinase 1": {"target": "LIM domain kinase 1 (Homo sapiens, UniProt P53667)", "sequence (P53667 whole entry, the tested form may be a part)": "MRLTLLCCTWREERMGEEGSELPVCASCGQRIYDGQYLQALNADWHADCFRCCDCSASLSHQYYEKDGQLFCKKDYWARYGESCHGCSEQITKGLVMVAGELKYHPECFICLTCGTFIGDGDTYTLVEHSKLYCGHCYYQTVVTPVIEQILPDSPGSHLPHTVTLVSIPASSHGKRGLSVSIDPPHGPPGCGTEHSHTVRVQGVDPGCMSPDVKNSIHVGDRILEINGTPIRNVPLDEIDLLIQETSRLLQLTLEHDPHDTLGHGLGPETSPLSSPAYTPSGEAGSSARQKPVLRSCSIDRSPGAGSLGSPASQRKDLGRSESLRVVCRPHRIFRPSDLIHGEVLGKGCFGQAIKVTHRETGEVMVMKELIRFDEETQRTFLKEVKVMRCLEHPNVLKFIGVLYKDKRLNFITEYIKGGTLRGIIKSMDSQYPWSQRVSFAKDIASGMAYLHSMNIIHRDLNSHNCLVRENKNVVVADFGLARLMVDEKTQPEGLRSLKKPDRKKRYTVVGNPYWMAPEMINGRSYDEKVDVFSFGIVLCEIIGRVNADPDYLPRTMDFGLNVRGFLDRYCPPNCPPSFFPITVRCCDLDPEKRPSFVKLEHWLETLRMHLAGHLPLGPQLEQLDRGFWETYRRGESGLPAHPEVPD", "assay": "Navigating the Kinome. Panel member name: LIMK1", "type": "functional"}, "[7]": {"assay": "cytotoxicity toward NIH3T3 fibroblasts, dose response, counter-screen, cell-based, ATP luminescence, mouse fibroblasts (AID 2010);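 further: cells exposed to compound for about 90 hours before reading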", "type": "functional"}}, "note": "Active and inactive are the calls of the source."}
{"smiles": "CNC[C@H](Cc1ccccc1)NC[C@@H](Cc1cccc2ccccc12)NCCc1ccc(C)cc1", "values": [{"measurement": "IC50", "setting": "Bcl-2-related protein A1", "result": "> 20 µM (inactive)"}, {"measurement": "IC50", "setting": "[1]", "result": "14.9 µM (active)"}, {"measurement": "IC50", "setting": "HEK293", "result": "9.04 µM (active)"}, {"measurement": "IC50", "setting": "[2]", "result": "11.5 µM (active)"}]}
{"smiles": "O=C(Cc1ccccc1Cl)NC1(O)C(=O)c2ccccc2C1=O", "values": [{"measurement": "EC50", "setting": "Protein RecA", "result": "8.18 µM (active)"}]}
{"smiles": "O=C(N/N=C/c1c(O)ccc2ccccc12)c1[nH]ncc1Br", "values": [{"measurement": "EC50", "setting": "[3]", "result": "> 100 µM (inactive)"}, {"measurement": "IC50", "setting": "Prothrombin", "result": "91.6 µM (active)"}, {"measurement": "EC50", "setting": "[4]", "result": "7.56 µM (active)"}]}
{"smiles": "Nc1c(-c2ccc(NC(=O)Nc3cccc(C(F)(F)F)c3)cc2)cnc2c(-c3ccc4c(c3)OCO4)cnn12", "values": [{"measurement": "Ki", "setting": "[5]", "result": "> 3.16 µM (inactive)"}, {"measurement": "Ki", "setting": "[6]", "result": "> 2.51 µM (inactive)"}, {"measurement": "Ki", "setting": "LIM domain kinase 1", "result": "> 3.16 µM (inactive)"}]}
{"smiles": "CCN1C(=Cc2sc3ccccc3[n+]2C)C=Cc2cccc(C)c21", "values": [{"measurement": "EC50", "setting": "[7]", "result": "1.86 µM (active)"}]}
